The values below come from US12012390B2, “Flavone compounds for the treatment and prophylaxis of hepatitis B virus disease” (priority 2018, dated 2024).

Each structure is given as a SMILES string.

The subject of this assay is cccDNA in HepDES19 cells. The experiment in a line: cccDNA Southern Blot assay. Type of assay: cell-based, HBV. Particulars: 5 days' compound treatment, FIG. 1. As for the experimental part: HepDES19 cells were seeded at 4×10^6 cells per T150 in the culture medium (Dulbecco's Modified Eagle Medium: Nutrient Mixture F-12 [DMEM-F12, Gibco Cat. 11320-82], 10% Fetal Bovine Serum [FBS, Clontech Cat. 631101], 0.1 mM Non-Essential Amino Acids Solution [NEAA, Gibco Cat. 11140-050], 50 μg/mL Penicillin-Streptomycin [PS, Invitrogen Cat. 15140-163], 500 μg/mL Geneticin [G418, Invitrogen Cat. 10131-027]) in the absence of Tet for 8 days. These cells were seeded at the density of 1×10^6 cells per well in 6-well plate. At 24 hrs after seeding, serial dilutions of compounds made with DMSO (Sigma, Cat. D2650) were further diluted with the same culture medium as described above before they were added to the cells to reach desired final compound concentrations and 1% DMSO concentration. After 5 days' compound treatment, the cells growing in one well from 6-well plate were re-suspended with 500 μL re-suspension buffer (50 mM tris[hydroxymethyl]amino methane pH 7.5), 10 mM ethylenediaminetetraacetic acid (EDTA), 50 μg/mL RNase A [Qiagen, Cat. 158922]. 500 μL of 1.2% sodium dodecyl sulfate (SDS) was then added into the re-suspended cells to lyse the cells. After 15 minutes' incubation, 700 μL precipitation buffer (3M cesium chloride, 1M potassium acetate, 0.67M acetic acid) was added and the lysate was incubated at 4° C. for 2 h. […]

Turning to `O=C(O)C1CC(OCCOc2ccc(-c3cc(=O)c4cccc(Cl)c4o3)cc2)C1` (stereo not shown) [Example 1, 3-[2-[4-(8-chloro-4-oxo-chromen-2-yl)phenoxy]ethoxy]cyclobutanecarboxylic acid], the “cccDNA level in cccDNA Southern Blot assay” value is “dose-dependently reduced cccDNA level”.
